Common to all, as to experiment: relative viability (nuclei count vs DMSO), 5 days (fraction); higher = more cells survive
Compound in one assay: CC1CC(=O)N(C2=CN=C(N=C2N1C3CCCC3)NC4=C(C=C(C=C4)C(=O)NC5CCN(CC5)C)OC)C [NPK76-II-72-1]
Summed up:
(§1)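 On vehicle-anchored 1536-well plates, lung cancer cell lines held overnight at 37 °C were pinned with five library-drug doses (not always all listed) spaced by √10. With no medium change over 5 days, they were then fixed, permeabilised and Hoechst-stained in one step and imaged at 4×. MetaXpress counted nuclei, and viability is the median across plates of treated-well over vehicle-well nuclei. Acceptance needed control CV below 25% and at least one doubling.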

Compound in a further assay: CC[C@@H]1C(=O)N(C)c2cnc(Nc3ccc(C(=O)NC4CCN(C)CC4)cc3OC)nc2N1C1CCCC1 [BI-2536]
Summed up: as §1

Compound in assay [1]: CC1CC(=O)N(C2=CN=C(N=C2N1C3CCCC3)NC4=C(C=C(C=C4)C(=O)NC5CCN(CC5)C)OC)C [NPK76-II-72-1] + Cc1nc(NC(=O)N2CCC[C@H]2C(N)=O)sc1-c1ccnc(C(C)(C)C(F)(F)F)c1 [Alpelisib] (partner 2 µM)
Summed up: (§2)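 Each reported value is a median over duplicate plates. It expresses relative viability: treated-well nuclei count divided by vehicle-well nuclei count. Lung cancer cell lines in 1536-well plates were dosed by pin tool a day after seeding, alone with one drug or with a fixed anchor-drug dose plus five library-drug doses (not always all listed) in √10 steps, and nuclei were counted after 5 days.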

Compound in the assay “BI-2536 + Pemetrexed”: CC[C@@H]1C(=O)N(C)c2cnc(Nc3ccc(C(=O)NC4CCN(C)CC4)cc3OC)nc2N1C1CCCC1 [BI-2536] + Nc1nc2[nH]cc(CCc3ccc(C(=O)N[C@@H](CCC(=O)O)C(=O)O)cc3)c2c(=O)[nH]1 [Pemetrexed] (partner 0.2 µM)
Put shortly:
as §2

Among the data in the supplement of paper PMC10307832 are relative viability values, retold here.

As to PC-14, the relative viability came out at 0.94 with NPK76-II-72-1 (0.01 µM); 1.05 with NPK76-II-72-1 (0.03162 µM); 0.992 with NPK76-II-72-1 (0.1 µM); 0.997 in the assay with NPK76-II-72-1 (0.3162 µM); 1.04 with NPK76-II-72-1 (1 µM); 0.998 with BI-2536 (0.01 µM). Besides, the relative viability came to 0.926 with BI-2536 (0.03162 µM); 0.681 with BI-2536 (0.1 µM); 0.0519 with BI-2536 (0.3162 µM); 0.0481 with BI-2536 (1 µM); 0.943 in assay [1] (first compound 0.01 µM); 0.956 in assay [1] (first compound 0.03162 µM). For the same cell line, the relative viability in assay [1] (first compound 0.1 µM) was found to be 0.946; in assay [1] (first compound 0.3162 µM), 0.916; in assay [1] (first compound 1 µM), 1.04; with BI-2536 + Pemetrexed (first compound 0.01 µM), 0.15; with BI-2536 + Pemetrexed (first compound 0.03162 µM) it was 0.14; with BI-2536 + Pemetrexed (first compound 0.1 µM) it was 0.132. The relative viability came out at 0.0335 in the assay with BI-2536 + Pemetrexed (first compound 0.3162 µM) and 0.0205 with BI-2536 + Pemetrexed (first compound 1 µM).

As to NCI-H2347, the relative viability with NPK76-II-72-1 (0.01 µM) is 0.924; in the assay with NPK76-II-72-1 (0.03162 µM) it was 1.05; with NPK76-II-72-1 (0.1 µM), 0.948; in the assay with NPK76-II-72-1 (0.3162 µM), 0.982; in the assay with NPK76-II-72-1 (1 µM) it was 1.05; with BI-2536 (0.01 µM), 0.942. Also, the relative viability with BI-2536 (0.03162 µM) was 1.07; in the assay with BI-2536 (0.1 µM) it was 0.941; with BI-2536 (0.3162 µM), 0.483; in the assay with BI-2536 (1 µM), 0.43; in assay [1] (first compound 0.01 µM) it was 0.992; in assay [1] (first compound 0.03162 µM) it was 1. Besides, the relative viability in assay [1] (first compound 0.1 µM) stood at 1.07; in assay [1] (first compound 0.3162 µM), 1.07; in assay [1] (first compound 1 µM), 1.11; in the assay with BI-2536 + Pemetrexed (first compound 0.01 µM), 0.437; with BI-2536 + Pemetrexed (first compound 0.03162 µM), 0.437; in the assay with BI-2536 + Pemetrexed (first compound 0.1 µM), 0.38. Further, the results for the relative viability with BI-2536 + Pemetrexed (first compound 0.3162 µM) and in the assay with BI-2536 + Pemetrexed (first compound 1 µM) were 0.365 and 0.344, respectively.

Regarding NCI-H2228, the relative viability with NPK76-II-72-1 (0.01 µM) worked out at 0.945; with NPK76-II-72-1 (0.03162 µM), 0.974; in the assay with NPK76-II-72-1 (0.1 µM), 1.08; with NPK76-II-72-1 (0.3162 µM), 0.883; with NPK76-II-72-1 (1 µM) it was 1.06; with BI-2536 (0.01 µM), 0.972. The relative viability with BI-2536 (0.03162 µM) stood at 0.991; in the assay with BI-2536 (0.1 µM), 0.279; with BI-2536 (0.3162 µM) it was 0.142; with BI-2536 (1 µM), 0.228; in assay [1] (first compound 0.01 µM), 0.595; in assay [1] (first compound 0.03162 µM) it was 0.81. Moreover, the relative viability in assay [1] (first compound 0.1 µM) turned out to be 0.555; in assay [1] (first compound 0.3162 µM), 0.733; in assay [1] (first compound 1 µM), 0.807; with BI-2536 + Pemetrexed (first compound 0.01 µM) it was 0.382; in the assay with BI-2536 + Pemetrexed (first compound 0.03162 µM) it was 0.385; with BI-2536 + Pemetrexed (first compound 0.1 µM), 0.131. For the same cell line, the relative viability with BI-2536 + Pemetrexed (first compound 0.3162 µM) was found to be 0.194; with BI-2536 + Pemetrexed (first compound 1 µM) it was 0.14.

As for NCI-H1563, the relative viability with NPK76-II-72-1 (0.01 µM) stood at 0.949; with NPK76-II-72-1 (0.03162 µM), 0.978; with NPK76-II-72-1 (0.1 µM), 1; in the assay with NPK76-II-72-1 (0.3162 µM), 0.94; with NPK76-II-72-1 (1 µM), 0.982; with BI-2536 (0.01 µM), 0.985. Besides, the relative viability in the assay with BI-2536 (0.03162 µM) came out at 1.16; with BI-2536 (0.1 µM), 0.924; in the assay with BI-2536 (0.3162 µM) it was 0.733; with BI-2536 (1 µM), 0.573; in assay [1] (first compound 0.01 µM), 0.859; in assay [1] (first compound 0.03162 µM) it was 0.939. The relative viability in assay [1] (first compound 0.1 µM) came out at 0.948; in assay [1] (first compound 0.3162 µM), 0.833; in assay [1] (first compound 1 µM) it was 0.955; with BI-2536 + Pemetrexed (first compound 0.01 µM) it was 0.736; in the assay with BI-2536 + Pemetrexed (first compound 0.03162 µM), 0.789; in the assay with BI-2536 + Pemetrexed (first compound 0.1 µM), 0.744. Besides, the relative viability in the assay with BI-2536 + Pemetrexed (first compound 0.3162 µM) turned out to be 0.413; in the assay with BI-2536 + Pemetrexed (first compound 1 µM), 0.473.

As to NCI-H1793, the relative viability in the assay with NPK76-II-72-1 (0.01 µM) is 0.76; with NPK76-II-72-1 (0.03162 µM), 1.06; in the assay with NPK76-II-72-1 (0.1 µM), 1.15; in the assay with NPK76-II-72-1 (0.3162 µM), 0.741; with NPK76-II-72-1 (1 µM) it was 0.915; in the assay with BI-2536 (0.01 µM), 0.912. Besides, the relative viability in the assay with BI-2536 (0.03162 µM) was found to be 0.816; with BI-2536 (0.1 µM), 0.314; in the assay with BI-2536 (0.3162 µM) it was 0.161; with BI-2536 (1 µM), 0.196; in assay [1] (first compound 0.01 µM), 0.611; in assay [1] (first compound 0.03162 µM), 0.679. The relative viability in assay [1] (first compound 0.1 µM) was determined as 0.677; in assay [1] (first compound 0.3162 µM), 0.521; in assay [1] (first compound 1 µM), 0.788; in the assay with BI-2536 + Pemetrexed (first compound 0.01 µM), 0.876; in the assay with BI-2536 + Pemetrexed (first compound 0.03162 µM), 1.04; with BI-2536 + Pemetrexed (first compound 0.1 µM), 0.197. In addition, the relative viability in the assay with BI-2536 + Pemetrexed (first compound 0.3162 µM) is 0.171; with BI-2536 + Pemetrexed (first compound 1 µM), 0.175.

EKVX: the relative viability with NPK76-II-72-1 (0.01 µM) came out at 0.946; in the assay with NPK76-II-72-1 (0.03162 µM) it was 0.938; with NPK76-II-72-1 (0.1 µM), 0.953; with NPK76-II-72-1 (0.3162 µM), 0.713; with NPK76-II-72-1 (1 µM), 1.21; in the assay with BI-2536 (0.01 µM) it was 0.966. Further, the relative viability with BI-2536 (0.03162 µM) stood at 1.05; in the assay with BI-2536 (0.1 µM) it was 0.958; with BI-2536 (0.3162 µM), 0.254; with BI-2536 (1 µM), 0.165; in assay [1] (first compound 0.01 µM), 0.796; in assay [1] (first compound 0.03162 µM), 0.897. For the same cell line, the relative viability stood at 0.884 in assay [1] (first compound 0.1 µM); 0.716 in assay [1] (first compound 0.3162 µM); 1.1 in assay [1] (first compound 1 µM); 0.389 with BI-2536 + Pemetrexed (first compound 0.01 µM); 0.403 with BI-2536 + Pemetrexed (first compound 0.03162 µM); 0.326 with BI-2536 + Pemetrexed (first compound 0.1 µM). Also, the relative viability came to 0.194 with BI-2536 + Pemetrexed (first compound 0.3162 µM) and 0.28 with BI-2536 + Pemetrexed (first compound 1 µM).

For HOP-62, the relative viability in the assay with NPK76-II-72-1 (0.01 µM) came to 0.935; in the assay with NPK76-II-72-1 (0.03162 µM), 1.02; in the assay with NPK76-II-72-1 (0.1 µM), 0.937; with NPK76-II-72-1 (0.3162 µM), 0.875; with NPK76-II-72-1 (1 µM) it was 1.05; in the assay with BI-2536 (0.01 µM), 1. Besides, the relative viability in the assay with BI-2536 (0.03162 µM) amounted to 1.07; with BI-2536 (0.1 µM), 0.775; with BI-2536 (0.3162 µM), 0.194; in the assay with BI-2536 (1 µM), 0.155; in assay [1] (first compound 0.01 µM) it was 1.08; in assay [1] (first compound 0.03162 µM), 0.999. The relative viability in assay [1] (first compound 0.1 µM) was 0.871; in assay [1] (first compound 0.3162 µM) it was 1.1; in assay [1] (first compound 1 µM) it was 1.12; with BI-2536 + Pemetrexed (first compound 0.01 µM), 0.394; with BI-2536 + Pemetrexed (first compound 0.03162 µM), 0.29; with BI-2536 + Pemetrexed (first compound 0.1 µM), 0.225. The relative viability in the assay with BI-2536 + Pemetrexed (first compound 0.3162 µM) came to 0.109; with BI-2536 + Pemetrexed (first compound 1 µM), 0.151.
